The source of these data is the NIST ThermoML archive (doi:10.1021/je049908l).

Numbers after ± are expanded uncertainties.

The conditions of data set [1]: Crystal; DTA.
Data set [2] can be described thus: Molar enthalpy of transition or fusion. The conditions noted are these: Crystal; DSC.

For the compound `NC(C(=O)O)c1ccc(O)cc1.O=S(=O)(O)O` (racemic) [DL-p-hydroxyphenylglycine sulfate], in data set [1], the Normal melting temperature was determined as 71.80 ± 2.1 °C. In addition, the “Molar enthalpy of transition or fusion” value in data set [2] worked out at 10.7 ± 0.693 kcal/mol.
